# In PubChem BioAssay AID1996:
# Conditions: buffer; pH 7.4; 200.0 µM
row,Structure (SMILES),solubility kinetic [µg/mL]
1,CC(OC(=O)c1cccnc1Cl)C(=O)NCc1ccccc1 (stereo not drawn),> 47.8
2,Cc1nc(-c2ccccc2)sc1C(=O)Nc1ccccc1F,1.8
3,COc1ccccc1/C=C/C(=O)NCC(=O)N/N=C/c1ccc(C)o1,> 51.2
4,CC1CCN(C(=O)CCN2C(=O)C3C4C=CC(C4)C3C2=O)CC1 (stereo not drawn),> 47.5
5,COc1ccc2[nH]c3c(=O)n(CCc4ccccc4)cnc3c2c1,0.6
6,O=C(NC(=O)C(F)(F)F)Nc1ccc(S(=O)(=O)Nc2nccs2)cc1,> 59.2
7,CCCNC(=O)COC(=O)/C(C#N)=C/c1cc(C)n(CCC)c1C,1.6
8,CCOc1nc(C)cc(C)c1S(=O)(=O)c1cccc(Cl)c1,6.2
9,O=C(NC(=S)NC1CCCC1)c1ccccc1,16.9
10,Cc1cc(SCC(=O)c2ccccc2)nc(=O)[nH]1,16.7
11,Fc1ccccc1CSCc1nc2ccccc2[nH]1,36.6
12,CCCCCCn1cc(C(=O)OCC)c(=O)c2cc(F)c(F)cc21,43.6
13,CC(OC(=O)c1ccco1)C(=O)Nc1nc(-c2ccccc2)cs1 (stereo not drawn),4.5
14,Cn1c(=O)c2sccc2n(Cc2ccccc2)c1=O,> 40.8
15,CC(=O)Oc1ccc(C(=O)Nc2cccc3c2CCCC3)cc1,3.4
16,COc1ccccc1OCC(=O)Nc1ccc2c(c1)OCO2,40.9
17,COc1ccc(C(=O)c2cnc[nH]2)cc1OC,33
18,CN1CCN(c2oc(-c3ccccc3)nc2S(=O)(=O)c2ccccc2)CC1,1.4
19,COc1cccc(OCc2ccc(Cl)cc2)c1C#N,< 0.6
20,COc1cc(C(=O)Cc2nc3ccccc3n2C)cc(OC)c1OC,> 51.1

row,Structure (SMILES),solubility kinetic [µg/mL]
1,CC(C)c1ccc(NC(=O)N2C[C@H]3C[C@@H](C2)c2cccc(=O)n2C3)cc1,> 52.7
2,CC(C(=O)Nc1ccc(F)c(F)c1F)N(C)CCOc1ccccc1 (stereo not drawn),13.6
3,CSc1nc(-c2ccccc2)nc(N2CCOCC2)c1C(C)=O,12
4,O=[N+]([O-])c1cnccc1Nc1ccc(Cl)cc1,16.6
5,COC(=O)c1cnc(Nc2cccc(C(F)(F)F)c2)c([N+](=O)[O-])c1,< 0.2
6,Cc1nc(C)c(C(=O)Nc2cccc(F)c2)s1,> 37.5
7,O=C(Nc1cccnc1)OC1CCCCC1,> 33
8,C/C(N)=C(/C#N)C(=O)COC(=O)C1=NN(c2ccccc2)C(=O)CC1,> 51.1
9,CN(CCC#N)C(=O)c1cc2c(s1)-c1ccccc1SC2,24.9
10,O=S(=O)(NCC1CCCO1)c1ccccc1F (stereo not drawn),> 38.9
11,N/C(=N\OC(=O)c1ccccc1Cl)c1cccc([N+](=O)[O-])c1,1.7
12,CCOc1cc(C=O)ccc1OCCn1c([N+](=O)[O-])cnc1C,18.1
13,O=c1cc[nH]c2ccc(OC(F)(F)F)cc12,> 34.4
14,COC(=O)c1ccccc1NC(=O)Cn1cnc([N+](=O)[O-])c1,> 45.6
15,CCC1C(C#N)=C(N)Oc2c1c(=O)oc1ccccc21 (stereo not drawn),8.6
16,COc1ccc(C(=O)Nc2cc(OC)c(Cl)cc2OC)cc1,< 0.7
17,Cc1ccc(S(=O)(=O)CC(=O)c2ccc([N+](=O)[O-])cc2)cc1,9.1
18,COC(=O)NCC(c1ccco1)N1CCN(c2ccc(OC)cc2)CC1 (stereo not drawn),> 53.9
19,CC(=O)Nc1ccc(NC(=O)Cc2ccc(-c3ccccc3)cc2)cc1,< 0.4
20,O=c1[nH]c(=S)n(C2CC2)c(O)c1C=Nc1ccc2c(c1)OCO2,1.3

row,Structure (SMILES),solubility kinetic [µg/mL]
1,COc1cc(N(C)C)c([N+](=O)[O-])cc1C(=O)N1CCOCC1,> 46.4
2,CSc1ccccc1NC(=O)CN(C)CC(=O)c1[nH]c(C)c(C(C)=O)c1C,6.7
3,CC(C(=O)Nc1cccc([N+](=O)[O-])c1)N1C(=O)NC2(CCCC2)C1=O (stereo not drawn),> 52
4,CC(C(=O)Nc1ccccc1)N1CCN(C(=O)c2ccco2)CC1 (stereo not drawn),> 49.1
5,Cc1ccc(NC(=S)Nc2ccc3[nH]c(=O)[nH]c3c2)cc1,44
6,COc1ccc(C(=O)OCC(=O)NC(C)CCc2ccccc2)cc1 (stereo not drawn),10.1
7,COC(=O)C1CSC(C)(C)C(=O)N1 (stereo not drawn),> 30.5
8,O=C(Nc1ncc([N+](=O)[O-])s1)c1cccs1,37.2
9,COC(=O)c1ccc(COC(=O)c2cccnc2Cl)cc1,37.8
10,O=C(O)CCC(=O)N1CCc2c([nH]c3ccccc23)C1C(F)(F)F (stereo not drawn),> 51
11,CC(Cc1ccccc1)NC(=O)c1ccc(N)cc1 (stereo not drawn),> 38.1
12,O=C(NC(=O)c1ccccc1)Nc1ccccn1,9.5
13,CCC1=NC(c2ccc(Br)cc2)N(O)C1(C)C (stereo not drawn),41
14,C[C@H](NC(=O)c1ccco1)C(=O)Nc1cc(S(=O)(=O)N2CCCC2)ccc1OCC(F)(F)F,> 73.4
15,O=C(C(Cl)Cl)N1CCN(Cc2ccc3c(c2)OCO3)CC1,42.6
16,CCc1ccc2[nH]c(C(=O)Nc3ccc(C)c(F)c3)cc2c1,0.9
17,Cc1cc(C)c2nc(SCC(=O)Nc3cc(C)on3)c(C#N)cc2c1,< 0.2
18,CCOC(=O)C1(Cc2ccccc2)C(=O)N(CCCN(C)C)c2ccccc21.Cl (stereo not drawn),57
